Measurements from ChEMBL document CHEMBL1649134, “Occurrence of efflux mechanism and cephalosporinase variant in a population of Enterobacter aerogenes and Klebsiella pneumoniae isolates producing extended-spectrum beta-lactamases” (2009).
Converted amounts (≈) assume the structure as drawn.

Legend:
Format in all cases: functional
Klebsiella aerogenes [1] = assay: Antimicrobial activity against multidrug resistant Enterobacter aerogenes isolate 1 by broth dilution method
Klebsiella aerogenes [2] = assay: Antimicrobial activity against multidrug resistant Enterobacter aerogenes isolate 2 by broth dilution method
Klebsiella aerogenes [3] = assay: Antimicrobial activity against multidrug resistant Enterobacter aerogenes isolate 3 by broth dilution method
Klebsiella aerogenes [4] = assay: Antimicrobial activity against multidrug resistant Enterobacter aerogenes isolate 4 by broth dilution method
Klebsiella aerogenes [5] = assay: Antimicrobial activity against multidrug resistant Enterobacter aerogenes isolate 5 by broth dilution method
Klebsiella aerogenes [6] = assay: Antimicrobial activity against multidrug resistant Enterobacter aerogenes isolate 6 by broth dilution method
Klebsiella aerogenes [7] = assay: Antimicrobial activity against multidrug resistant Enterobacter aerogenes isolate 7 by broth dilution method
Klebsiella aerogenes [8] = assay: Antimicrobial activity against multidrug resistant Enterobacter aerogenes isolate 8 by broth dilution method
Klebsiella aerogenes [9] = assay: Antimicrobial activity against multidrug resistant Enterobacter aerogenes isolate 9 by broth dilution method
Klebsiella aerogenes [10] = assay: Antimicrobial activity against multidrug resistant Enterobacter aerogenes isolate 10 by broth dilution method
Klebsiella aerogenes [11] = assay: Antimicrobial activity against multidrug resistant Enterobacter aerogenes isolate 11 by broth dilution method
Klebsiella aerogenes [12] = assay: Antimicrobial activity against multidrug resistant Enterobacter aerogenes isolate 12 by broth dilution method
Klebsiella aerogenes [13] = assay: Antimicrobial activity against multidrug resistant Enterobacter aerogenes isolate 13 by broth dilution method
Klebsiella aerogenes [14] = assay: Antimicrobial activity against multidrug resistant Enterobacter aerogenes isolate 14 by broth dilution method
Klebsiella aerogenes [15] = assay: Antimicrobial activity against multidrug resistant Enterobacter aerogenes isolate 15 by broth dilution method
Klebsiella aerogenes [16] = assay: Antimicrobial activity against multidrug resistant Enterobacter aerogenes isolate 16 by broth dilution method
Klebsiella aerogenes [17] = assay: Antimicrobial activity against multidrug resistant Enterobacter aerogenes isolate 17 by broth dilution method
Klebsiella aerogenes [18] = assay: Antimicrobial activity against multidrug resistant Enterobacter aerogenes isolate 18 by broth dilution method
Klebsiella aerogenes [19] = assay: Antimicrobial activity against multidrug resistant Enterobacter aerogenes isolate 19 by broth dilution method
Klebsiella aerogenes [20] = assay: Antimicrobial activity against multidrug resistant Enterobacter aerogenes isolate 20 by broth dilution method
Klebsiella aerogenes [21] = assay: Antimicrobial activity against multidrug resistant Enterobacter aerogenes isolate 21 by broth dilution method
Klebsiella aerogenes [22] = assay: Antimicrobial activity against multidrug resistant Enterobacter aerogenes isolate 22 by broth dilution method
Klebsiella aerogenes [23] = assay: Antimicrobial activity against multidrug resistant Enterobacter aerogenes isolate 23 by broth dilution method
Klebsiella aerogenes [24] = assay: Antimicrobial activity against multidrug resistant Enterobacter aerogenes isolate 24 by broth dilution method
Klebsiella aerogenes [25] = assay: Antimicrobial activity against multidrug resistant Enterobacter aerogenes isolate 25 by broth dilution method
Klebsiella aerogenes [26] = assay: Antimicrobial activity against multidrug resistant Enterobacter aerogenes isolate 26 by broth dilution method
Klebsiella aerogenes [27] = assay: Antimicrobial activity against multidrug resistant Enterobacter aerogenes isolate 27 by broth dilution method
Klebsiella pneumoniae [28] = assay: Antimicrobial activity against multidrug resistant Klebsiella pneumoniae ATCC 11296 by broth dilution method
Klebsiella pneumoniae [29] = assay: Antimicrobial activity against multidrug resistant Klebsiella pneumoniae isolate 1 by broth dilution method
Klebsiella pneumoniae [30] = assay: Antimicrobial activity against multidrug resistant Klebsiella pneumoniae isolate 2 by broth dilution method
Klebsiella pneumoniae [31] = assay: Antimicrobial activity against multidrug resistant Klebsiella pneumoniae isolate 3 by broth dilution method
Klebsiella pneumoniae [32] = assay: Antimicrobial activity against multidrug resistant Klebsiella pneumoniae isolate 4 by broth dilution method
Klebsiella pneumoniae [33] = assay: Antimicrobial activity against multidrug resistant Klebsiella pneumoniae isolate 5 by broth dilution method
Klebsiella pneumoniae [34] = assay: Antimicrobial activity against multidrug resistant Klebsiella pneumoniae isolate 6 by broth dilution method
Klebsiella pneumoniae [35] = assay: Antimicrobial activity against multidrug resistant Klebsiella pneumoniae isolate 7 by broth dilution method
Klebsiella pneumoniae [36] = assay: Antimicrobial activity against multidrug resistant Klebsiella pneumoniae isolate 8 by broth dilution method
Klebsiella pneumoniae [37] = assay: Antimicrobial activity against multidrug resistant Klebsiella pneumoniae isolate 9 by broth dilution method
Klebsiella pneumoniae [38] = assay: Antimicrobial activity against multidrug resistant Klebsiella pneumoniae isolate 10 by broth dilution method
Klebsiella pneumoniae [39] = assay: Antimicrobial activity against multidrug resistant Klebsiella pneumoniae isolate 11 by broth dilution method
Klebsiella pneumoniae [40] = assay: Antimicrobial activity against multidrug resistant Klebsiella pneumoniae isolate 12 by broth dilution method
Klebsiella pneumoniae [41] = assay: Antimicrobial activity against multidrug resistant Klebsiella pneumoniae isolate 13 by broth dilution method
Klebsiella pneumoniae [42] = assay: Antimicrobial activity against multidrug resistant Klebsiella pneumoniae isolate 14 by broth dilution method
Klebsiella pneumoniae [43] = assay: Antimicrobial activity against multidrug resistant Klebsiella pneumoniae isolate 15 by broth dilution method
Klebsiella pneumoniae [44] = assay: Antimicrobial activity against multidrug resistant Klebsiella pneumoniae isolate 16 by broth dilution method
Klebsiella aerogenes [45] = assay: Antimicrobial activity against multidrug resistant Enterobacter aerogenes ATCC 15038 by broth dilution method

For `CO[C@@]1(NC(=O)Cc2cccs2)C(=O)N2C(C(=O)O)=C(COC(N)=O)CS[C@@H]21` [CEFOXITIN], the MIC (Klebsiella aerogenes [1]) was > 1020 µg/mL, the MIC (Klebsiella aerogenes [2]) was > 1020 µg/mL and the MIC (Klebsiella aerogenes [3]) was > 1020 µg/mL. The MIC (Klebsiella aerogenes [4]) was > 1020 µg/mL, the MIC (Klebsiella aerogenes [5]) was > 1020 µg/mL and the MIC (Klebsiella aerogenes [6]) was > 1020 µg/mL. For the same compound, the MIC (Klebsiella aerogenes [7]) was > 1020 µg/mL, the MIC (Klebsiella aerogenes [8]) was 1020 µg/mL (≈ 2400 µM) and the MIC (Klebsiella aerogenes [9]) was > 1020 µg/mL. For the same compound, the MIC (Klebsiella aerogenes [10]) was > 1020 µg/mL, the MIC (Klebsiella aerogenes [11]) was 512 µg/mL (≈ 1200 µM) and the MIC (Klebsiella aerogenes [12]) was > 1020 µg/mL. The MIC (Klebsiella aerogenes [13]) was > 1020 µg/mL, the MIC (Klebsiella aerogenes [14]) was > 1020 µg/mL and the MIC (Klebsiella aerogenes [15]) was > 1020 µg/mL. The MIC (Klebsiella aerogenes [16]) was > 1020 µg/mL, the MIC (Klebsiella aerogenes [17]) was > 1020 µg/mL and the MIC (Klebsiella aerogenes [18]) was > 1020 µg/mL. For the same compound, the MIC (Klebsiella aerogenes [19]) was > 1020 µg/mL, the MIC (Klebsiella aerogenes [20]) was > 1020 µg/mL and the MIC (Klebsiella aerogenes [21]) was > 1020 µg/mL. The MIC (Klebsiella aerogenes [22]) was > 1020 µg/mL, the MIC (Klebsiella aerogenes [23]) was 256 µg/mL (≈ 599 µM) and the MIC (Klebsiella aerogenes [24]) was > 1020 µg/mL. For the same compound, the MIC (Klebsiella aerogenes [25]) was > 1020 µg/mL, the MIC (Klebsiella aerogenes [26]) was 1020 µg/mL (≈ 2400 µM) and the MIC (Klebsiella aerogenes [27]) was > 1020 µg/mL. The MIC (Klebsiella pneumoniae [28]) was 8 µg/mL (≈ 18.7 µM), the MIC (Klebsiella pneumoniae [29]) was 16 µg/mL (≈ 37.4 µM) and the MIC (Klebsiella pneumoniae [30]) was 16 µg/mL (≈ 37.4 µM). The MIC (Klebsiella pneumoniae [31]) was 32 µg/mL (≈ 74.9 µM), the MIC (Klebsiella pneumoniae [32]) was 32 µg/mL (≈ 74.9 µM) and the MIC (Klebsiella pneumoniae [33]) was 16 µg/mL (≈ 37.4 µM). It also gave an MIC (Klebsiella pneumoniae [34]) of 16 µg/mL (≈ 37.4 µM), an MIC (Klebsiella pneumoniae [35]) of 16 µg/mL (≈ 37.4 µM) and an MIC (Klebsiella pneumoniae [36]) of 8 µg/mL (≈ 18.7 µM). The MIC (Klebsiella pneumoniae [37]) was 16 µg/mL (≈ 37.4 µM), the MIC (Klebsiella pneumoniae [38]) was 32 µg/mL (≈ 74.9 µM) and the MIC (Klebsiella pneumoniae [39]) was 32 µg/mL (≈ 74.9 µM). For the same compound, the MIC (Klebsiella pneumoniae [40]) was 64 µg/mL (≈ 150 µM), the MIC (Klebsiella pneumoniae [41]) was 32 µg/mL (≈ 74.9 µM) and the MIC (Klebsiella pneumoniae [42]) was 64 µg/mL (≈ 150 µM). The MIC (Klebsiella pneumoniae [43]) was 64 µg/mL (≈ 150 µM), the MIC (Klebsiella pneumoniae [44]) was 32 µg/mL (≈ 74.9 µM) and the MIC (Klebsiella aerogenes [45]) was 128 µg/mL (≈ 299 µM).
